Experimental data reported in patent US11718603B2, “CDK2 inhibitors” (Pfizer Inc., priority 2019, dated 2023).
Where two headings read alike, the source gives them in different places.

Tests used:
[1] = target: CDK2/Cyclin E1 (Homo sapiens (Human), UniProt P24941); test: CDK2/Cyclin E1 full length mobility shift assay; type: biochemical
Experimental: CDK2/Cyclin E1 Full Length Mobility Shift Assay
Wild-type CDK2/wild-type full length Cyclin E1 enzyme complex was produced in-house (baculoviral expression, LJIC-2080/LJIC-2103) and phosphorylated by CDK7/Cyclin H1/Mat1 enzyme complex with CDK2:CDK7 ratio of 50:1 (concentration mg/mL) in the presence of 10 mM MgCl2 and 5 mM ATP at room temperature for one hour. […] The assay was initiated with the addition of ATP, following a fifteen minutes pre-incubation of enzyme and inhibitor at room temperature in the reaction mixture. The reaction was stopped after 45 minutes at room temperature by the addition of 50 μL of 80 mM EDTA.

[2] = target: T1, GSK3β (Homo sapiens, UniProt P49841); test: biochemical; conditions: GSK3β Ki (nM)
Experimental: (§1) The assay was initiated with the addition of ATP, following 15 minutes pre-incubation of enzyme and inhibitor at room temperature in the reaction mixture. The reaction was stopped after 30 minutes at room temperature by the addition of 50 μL of 80 mM EDTA.

[3] = target: T1, GSK3β; conditions: read-out: GSK3β Ki
Experimental: as §1

Ki [1] | Ki [2] | Structure (SMILES) | Ki [3]
0.19 nM | 14 nM | Cc1ncc(CC(=O)Nc2cc([C@@H]3CC[C@H](OC(=O)N[C@@H]4CCOC[C@H]4C)C3)[nH]n2)s1 (single isomer, unassigned; isomer a) [Example 510, (1S,3R)-3-(3-{[(2-methyl-1,3-thiazol-5-yl)acetyl]amino}-1H-pyrazol-5-yl)cyclopentyl [(3S*,4R*)-3-methyltetrahydro-2H-pyran-4-yl]carbamate- Isomer A] | –
1.52 nM | 4.74 nM | Cc1ncc(CC(=O)Nc2cc([C@@H]3CC[C@H](OC(=O)N[C@@H]4CCOC[C@H]4C)C3)[nH]n2)s1 (single isomer, unassigned; isomer b) [Example 511, (1S,3R)-3-(3-{[(2-methyl-1,3-thiazol-5-yl)acetyl]amino}-1H-pyrazol-5-yl)cyclopentyl [(3S*,4R*)-3-methyltetrahydro-2H-pyran-4-yl]carbamate- Isomer B] | –
0.31 nM | – | Cc1ncc(CC(=O)Nc2cc([C@H]3CC[C@@H](OC(=O)NC(C)C)C3)[nH]n2)s1 [Example 2, (1R,3S)-3-(3-{[(2-methyl-1,3-thiazol-5-yl)acetyl]amino}-1H-pyrazol-5-yl)cyclopentyl propan-2-ylcarbamate] | –
– | – | Cc1cc(CC(=O)Nc2cc([C@H]3CC[C@@H](OC(=O)N4CCCC[C@@H]4C)C3)[nH]n2)on1 [Example 640, (1R,3S)-3-(3-{[(3-methyl-1,2-oxazol-5-yl)acetyl]amino}-1H-pyrazol-5-yl)cyclopentyl(2S)-2-methylpiperidine-1-carboxylate] | 13.3 nM

Structure (SMILES) | Ki [1] | Ki [2] | Ki [3]
CC[C@H](C)NC(=O)O[C@@H]1CC[C@H](c2cc(NC(=O)c3cc(COC)nn3C)n[nH]2)C1 [Example 14, (1R,3S)-3-[3-({[3-(methoxymethyl)-1-methyl-1H-pyrazol-5-yl]carbonyl}amino)-1H-pyrazol-5-yl]cyclopentyl (2S)-butan-2-ylcarbamate] | 0.27 nM | – | 294 nM
COc1ccc(CC(=O)Nc2cc([C@@H]3CC[C@H](OC(=O)N4CCC4(C)C)C3)[nH]n2)cn1 [Example 145] | 0.12 nM | – | –
